Assay [1] deals with HeLa. The experiment in a line: Cytotoxicity against human HeLa cells assessed as reduction in cell viability at 50 uM after 48 hrs by MTT assay relative to control. In kind it is functional.
Assay [2] deals with A549. Nature of the assay: Cytotoxicity against human A549 cells assessed as reduction in cell viability at 50 uM after 48 hrs by MTT assay relative to control. It is filed as functional. The following applies: A549, 48 h.
The test system of assay [3] is MCF7. The experiment in a line: Cytotoxicity against human MCF7 cells assessed as reduction in cell viability at 50 uM after 48 hrs by MTT assay relative to control. It is filed as functional. The following applies: MCF7, 48 h.
Assay [4] has as its system HepG2. Nature of the assay: Cytotoxicity against human HepG2 cells assessed as reduction in cell viability at 50 uM after 48 hrs by MTT assay relative to control. It is filed as functional. The following applies: HepG2, 48 h.
Assay [5] has as its system HeLa. The experiment in a line: Cytotoxicity against human HeLa cells assessed as reduction in cell viability after 48 hrs by MTT assay. In kind it is functional, cell-based.
In assay [6] the test system is A549. Nature of the assay: Cytotoxicity against human A549 cells assessed as reduction in cell viability after 48 hrs by MTT assay. It is filed as functional, cell-based. The following applies: A549, 48 h.
The test system of assay [7] is MCF7. The experiment in a line: Cytotoxicity against human MCF7 cells assessed as reduction in cell viability after 48 hrs by MTT assay. In kind it is functional, cell-based. The settings on record: MCF7, 48 h.
Assay [8] concerns HepG2. The experiment in a line: Cytotoxicity against human HepG2 cells assessed as reduction in cell viability after 48 hrs by MTT assay. In kind it is functional, cell-based. The following applies: HepG2, 48 h.
Assay [9] has as its system L02. Nature of the assay: Cytotoxicity against human LO2 cells assessed as reduction in cell viability after 48 hrs by MTT assay. It is filed as cell-based. The following applies: L02, 48 h.
Assay [10] is described as follows: Binding affinity to chloride ion assessed as 1:1 compound-Cl- complex formation at 4.1 mM using tetra(n-butyl)ammonium chloride by ESI MS spectrometric method.
Assay [11] is described as follows: Binding affinity to chloride ion at 1.5 x 10^-5M using tetra(n-butyl)ammonium chloride measured after 5 mins by spectrophotometric titration method.
Assay [12] in a line: Ionophoric activity across pyranine dye encapsulated pH 7 egg yolk L-alpha-phosphatidylcholine-based liposomal membranes assessed as chloride ion transport by measuring induction of pH discharge after 20 mins in presence of NaCl loaded external vesicles by fluorescence method.
The nature of assay [13]: Ionophoric activity across pyranine dye encapsulated pH 7 egg yolk L-alpha-phosphatidylcholine-based liposomal membranes assessed as chloride ion transport by measuring initial rate constant for induction of pH discharge at 7.81 x 10^-3 mol% after 20 mins in presence of NaCl loaded external vesicles by fluorescence method (reference value: 5.03 +/- 1.02 10^-3/min).
Assay [14] in a line: Ionophoric activity across pyranine dye encapsulated pH 7 egg yolk L-alpha-phosphatidylcholine-based liposomal membranes assessed as chloride ion transport by measuring initial rate constant for induction of pH discharge at 1.56 x 10^-2 mol% after 20 mins in presence of NaCl loaded external vesicles by fluorescence method (reference value: 5.03 +/- 1.02 10^-3/min).
Assay [15] is described as follows: Ionophoric activity across pyranine dye encapsulated pH 7 egg yolk L-alpha-phosphatidylcholine-based liposomal membranes assessed as chloride ion transport by measuring initial rate constant for induction of pH discharge at 3.13 x 10^-2 mol% after 20 mins in presence of NaCl loaded external vesicles by fluorescence method (reference value: 5.03 +/- 1.02 10^-3/min).

Assay [16] is described as follows: Ionophoric activity across pyranine dye encapsulated pH 7 egg yolk L-alpha-phosphatidylcholine-based liposomal membranes assessed as chloride ion transport by measuring initial rate constant for induction of pH discharge at 6.25 x 10^-2 mol% after 20 mins in presence of NaCl loaded external vesicles by fluorescence method (reference value: 5.03 +/- 1.02 10^-3/min).

A short description of assay [17]: Ionophoric activity across pyranine dye encapsulated pH 7 egg yolk L-alpha-phosphatidylcholine-based liposomal membranes assessed as chloride ion transport by measuring initial rate constant for induction of pH discharge at 1.25 x 10^-1 mol% after 20 mins in presence of NaCl loaded external vesicles by fluorescence method (reference value: 5.03 +/- 1.02 10^-3/min).

Assay [18] can be described thus: Ionophoric activity across pyranine dye encapsulated pH 7 egg yolk L-alpha-phosphatidylcholine-based liposomal membranes assessed as chloride ion transport by measuring initial rate constant for induction of pH discharge at 2.50 x 10^-1 mol% after 20 mins in presence of NaCl loaded external vesicles by fluorescence method (reference value: 5.03 +/- 1.02 10^-3/min).

A short description of assay [19]: Ionophoric activity across pyranine dye encapsulated pH 7 egg yolk L-alpha-phosphatidylcholine-based liposomal membranes assessed as chloride ion transport by measuring induction of pH discharge after 20 mins in presence of NaCl loaded external vesicles by fluorescence method relative to m-Bimbe.
In assay [20] the test system is HeLa. Nature of the assay: Ionophoric activity across human HeLa cells assessed as chloride ion efflux up to 10 uM after 2 hrs by MQAE dye based fluorescence assay. In kind it is cell-based.
For assay [21], the system named is MCF7. Nature of the assay: Ionophoric activity across human MCF7 cells assessed as chloride ion efflux up to 10 uM after 2 hrs by MQAE dye based fluorescence assay. In kind it is cell-based.
Assay [22] concerns HeLa. The experiment in a line: Ionophoric activity across human HeLa cells assessed as chloride ion efflux at 10 uM after 3 hrs by acridine orange staining based fluorescence microscopic analysis. It is filed as cell-based.
A short description of assay [23]: Binding affinity to chloride ion at 1.5 x 10^-5M using tetra(n-butyl)ammonium chloride measured after 2 mins by spectrophotometric titration method.

SMILES strings stand for the structures. Activity calls are given as the source filed them. No cut-off for these calls is given here. Bounds are passed on as bounds.

`Cn1c(-c2cccc(-c3nc4ccccc4n3C)c2)nc2ccccc21`: the inhibition at 50 µM in assay [1] was found to be 43.2%; in assay [2] it was 22.2%; in [3], 23.3%; in assay [4] it was 49.1%.
As to `Clc1ccc2nc(-c3cccc(-c4nc5ccc(Cl)cc5[nH]4)c3)[nH]c2c1`, the inhibition at 50 µM in assay [1] was found to be 95.6%; in assay [2], 82.4%; in assay [3], 90.5%; in [4] it was 98.4%. In addition, the half-inhibitory concentration (IC50) amounted to 10.7 µM in [5]; 23.7 µM in [6]; 25.9 µM in [7]; 9.1 µM in [8]; 13.7 µM in assay [9].
As for `COc1cc(-c2nc3ccc(C(F)(F)F)cc3[nH]2)cc(-c2nc3ccc(C(F)(F)F)cc3[nH]2)c1`, the result in [10], in [20], in assay [21] and in assay [22] was Active. Also, the Ka in assay [11] is 3.53 ×10³ /M. The Activity result in [12] is “Dose-dependent effect”. Moreover, the EC50 was determined as 0.15 mol% in assay [12] and 1.99 µM in [12] (read-out: EC50). Also, the K in assay [13] was determined as 3.23 ×10⁻² /min; in assay [14] it was 4.33 ×10⁻² /min; in [15], 6.31 ×10⁻² /min; in [16] it was 8.52 ×10⁻² /min; in [17] it was 1.16 ×10⁻¹ /min; in assay [18] it was 1.47 ×10⁻¹ /min. Further, the fold change (FC) in [19] is 43. Moreover, the inhibition at 50 µM was determined as 91.8% in assay [1], 100% in assay [2], 98.9% in [3] and 101% in assay [4]. The concentration for half-maximal inhibition (IC50) turned out to be 8.4 µM in assay [5]; 8.1 µM in assay [6]; 11.9 µM in assay [7]; 10.7 µM in [8]; 10.1 µM in assay [9].
As for `c1ccc2[nH]c(-c3ccc(-c4nc5ccccc5[nH]4)cc3)nc2c1`, the inhibition at 50 µM was 59.6% in assay [1], 53.1% in assay [2], 63.3% in assay [3] and 17.4% in assay [4].
As to `c1ccc(-c2nc3ccccc3[nH]2)c(-c2nc3ccccc3[nH]2)c1`, the inhibition at 50 µM was 24.9% in [1], -6% in assay [2], 11.6% in assay [3] and 3.6% in assay [4].
The compound `O=[N+]([O-])c1ccc2nc(-c3cccc(-c4nc5ccc([N+](=O)[O-])cc5[nH]4)c3)[nH]c2c1` registered a Ka in [23] of 2.22 ×10³ /M. The EC50 is 8.19 ×10⁻³ mol% in assay [12] and 0.11 µM in assay [12] (read-out: EC50). Also, the fold change (FC) in assay [19] stood at 790. Also, the inhibition at 50 µM stood at 59.2% in assay [1], 52.1% in [2], 47.4% in assay [3] and 15.4% in assay [4].
With `COc1cc(-c2nc3ccc([N+](=O)[O-])cc3[nH]2)cc(-c2nc3ccc([N+](=O)[O-])cc3[nH]2)c1`, the result in assay [10] was Active. In assay [11], this compound registered a Ka of 1.56 ×10³ /M. Moreover, the Activity entry in assay [12] was “Dose-dependent effect”. The EC50 came to 0.32 mol% in [12] and 4.24 µM in [12] (read-out: EC50). Moreover, the fold change (FC) in [19] came out at 20. In addition, the inhibition at 50 µM in assay [1] is 85.3%; in assay [2], 67.7%; in [3], 96.3%; in assay [4], 96.7%. For the same compound, the IC50 in [5] was determined as 1 µM; in assay [6] it was 18.5 µM; in assay [7], 17.1 µM; in assay [8], 8.9 µM; in assay [9], 26.3 µM.
Turning to `COc1cccc2c1C(=O)c1c(O)c3c(c(O)c1C2=O)C[C@@](O)(C(=O)CO)C[C@@H]3O[C@H]1C[C@H](N)[C@H](O)[C@H](C)O1` [DOXORUBICIN], the IC50 in assay [5] was 0.5 µM; in assay [6] it was 0.6 µM; in assay [7], 0.8 µM; in assay [8], 2.1 µM; in assay [9] it was 0.11 µM.
Consider `c1cc(-c2nc3ccccc3[nH]2)cc(-c2nc3ccccc3[nH]2)c1`, for which the result in assay [10], in assay [20], in assay [21] and in assay [22] was Active. Besides, the Ka in assay [23] was 2.48 ×10³ /M. The figures for the EC50 in assay [12] and in assay [12] (read-out: EC50) were 6.47 mol% and 85.8 µM, respectively. Moreover, the inhibition at 50 µM in assay [1] was found to be 96.5%; in assay [2], 91.1%; in [3] it was 31.9%; in assay [4], 69.5%. The IC50 in assay [5] is 8.5 µM; in assay [6], 38.5 µM; in assay [7], greater than 100 µM; in [8], 20.6 µM; in assay [9], 19.9 µM.
In the case of `Brc1ccc2nc(-c3cccc(-c4nc5ccc(Br)cc5[nH]4)c3)[nH]c2c1`, the inhibition at 50 µM in assay [1] stood at 98%; in assay [2], 92.6%; in [3] it was 93.5%; in [4], 93.1%. The concentration for half-maximal inhibition (IC50) stood at 21.1 µM in [5]; 21.9 µM in assay [6]; 9.7 µM in assay [7]; 12.1 µM in assay [8]; 17.8 µM in [9].
Regarding `c1ccc(-c2nc3ccccc3[nH]2)cc1`, the inhibition at 50 µM in [1] amounted to 8.1%; in assay [2], 1.2%; in assay [3], 25.5%; in assay [4], 11.6%.
In the case of `Fc1ccc2nc(-c3cccc(-c4nc5ccc(F)cc5[nH]4)c3)[nH]c2c1`, the inhibition at 50 µM in assay [1] was determined as 83.5%; in [2], 33.6%; in assay [3] it was 26.4%; in [4] it was 78.9%. Besides, the 50% inhibitory concentration (IC50) in assay [5] was 11.6 µM; in [6] it was greater than 100 µM; in [7] it was greater than 100 µM; in [8] it was 17.3 to 17.4 µM; in assay [9], 20.8 µM.
On to `FC(F)(F)c1ccc2nc(-c3cccc(-c4nc5ccc(C(F)(F)F)cc5[nH]4)c3)[nH]c2c1`, for which the Ka in assay [23] amounted to 4.52 ×10³ /M. Moreover, the EC50 was 9.59 ×10⁻² mol% in assay [12] and 1.27 µM in assay [12] (read-out: EC50). The fold change (FC) in assay [19] came to 67. Further, the outcome in assay [20], in assay [21] and in assay [22] was Active. The inhibition at 50 µM in [1] was 100%; in assay [2] it was 99.3%; in assay [3] it was 98.8%; in assay [4], 100%. The 50% inhibitory concentration (IC50) in assay [5] was 8 µM; in assay [6], 8.9 µM; in assay [7] it was 12.8 µM; in assay [8] it was 6.6 µM; in assay [9], 10.9 µM.
